# Read-outs that look alike come from different tables or passages of the source.
# How the values were obtained:
# [1] = tested on: HeLa cervical carcinoma cells; test: Cellular cytotoxicity assay (Alamar Blue), HeLa; assay type: cell-based; conditions: Homo sapiens, 72 h, range stated for the listed group
# Description: (§1) The anti-proliferative activity of the histone deacetylase inhibitory compounds as described herein, was evaluated using the following cell lines: HeLa and HeLa—KB (cervical carcinoma), H460 (non small cell lung cancer), A549 (non-small cell lung cancer), MCF7 (breast carcinoma), MCF10A (normal, non tumorigenic breast epithelial), MDA-MB468 (breast carcinoma), MDA-MB435 (breast carcinoma), MDA-MB231 (breast carcinoma), SKBR-3 (breast carcinoma), SKOV-3 (ovarial carcinoma), A-2780 (ovarial carcinoma), RKO (colon carcinoma), HCT-15 (colon carcinoma), HCT-116 (colon carcinoma), PC3 (prostate carcinoma), BPH1 (benign prostate hyperplasia), AsPC1 (pancreatic carcinoma), Cal27 (tongue carcinoma), A-431 (vulva carcinoma), HeclA (endometrial carcinoma), Saos-2 (osteosarcoma), U87MG (glioblastoma), WM266-4 (melanoma), K562 (chronic myeloid carcinoma), EOL1 (acute hypereosinophilic myeloid leukemia), CCRF-CEM and CCRF-CEM VCR1000 (acute lymphoblastic leukemia sensitive and resistant towards Vincristine). For quantification of cellular proliferation/living cells the Alamar Blue (Resazurin) cell viability assay was applied (O'Brien et al. Eur J Biochem 267, 5421-5426, 2000). In this assay Resazurin is reduced to the fluorescent resorufin by cellular dehydrogenase activity, correlating with viable, proliferating cells. The examples were dissolved as 20 mM solutions in dimethylsulfoxide (DMSO) and subsequently diluted in semi-logarithmic steps. Cell lines were seeded at respective density into 96 well flat bottom plates in a volume of 200 μl per well. 24 hours after seeding 1 μl each of the compound dilutions were added into each well of the 96 well plate. Each compound dilution was tested as quadruplicates. Wells containing untreated control cells were filled with 200 μl DMEM medium containing 0.5% v:v DMSO. The cells were then incubated with the substances for 72 hours at 37° C. in a humidified atmosphere containing 5% carbon dioxide. To determine the viability of the cells, 20 μl of an Resazurin solution (Sigma; 90 mg/l) were added. After 4 hours incubation at 37° C. the fluorescence was measured at an extinction of 544 nm and an emission of 590 nm. For the calculation of the cell viability the emission value from untreated cells was set as 100% viability and the emission rates of treated cells were set in relation to the values of untreated cells. Viabilities were expressed as % values. The corresponding IC50 values of the compounds for cytotoxic activity are determined from the concentration-effect curves by means of non-linear regression.
# A549 cell line = test: Combination experiment with Trail in A549; assay type: cell-based; conditions: example at about its IC50 combined with Trail
# Description: A549 non-small cell lung cancer, MDA-MB468 breast cancer and […] colorectal cancer cell lines were pretreated with the examples for 4 h before adding the chemotherapeutic agents or Trail and further incubation for 72 h total. The IC50 values of these combinations were determined from concentration-effect curves and compared to IC50 values of cell treated with the anti-cancer agent only.
# [2] = tested on: RKO colon carcinoma cells; test: Cell-cycle dependent cytotoxicity, RKO exop21 cell system; assay type: cell-based; conditions: Homo sapiens, 72 h, range stated for the listed group
# Description: For determination of cell-cycle dependent cytotoxicity, the RKO exop21 cell system was applied (Schmidt et al. Oncogene 19: 2423-2429, 2000). Briefly, RKO cells with/without p21^waf1 expression (2×10^4 cells/well induced, 6×10^3 cells/well not induced) were treated with the examples for 72 h and metabolic activity quantified as described before. The expression of p21^waf1 was induced by treatment with Pronasterone A, causing a complete proliferation arrest of RKO cells in the G1 and G2 phases of the cell division cycle.
# [3] = tested on: MDA-MB468 breast cancer cells; test: Breast cancer cell differentiation assay (Nile Red, flow cytometry); assay type: cell-based; conditions: 24 h; for Neutral & phospholipids (%): differentiated cells; for Phospholipids (%): undifferentiated cells
# Description: For quantification of MDA-MB468 breast cancer cell differentiation (described by Munster et al. Canc. Res. 61(23), pp 8492, 2001), 1× E6 cells were seeded in 10 cm cell culture dishes and, after cultivation for 24 h, treated with HDI for further 24 h. Finally, cells were collected by trypsination, washed twice with PBS and resuspended in 1 ml of staining solution ([…] Nile Red in PBS). After incubation for at least 5 min at room temperature, cells were analysed by flow cytometry on a FACS Calibur device (Ex 488 nm, Em. at 530 nm/FL-1 and >630 nm/FL-3). From respective histograms the percentage of cells with fluorescence at 650 nm (phospholipids) and 530 nm+650 nm (phospho- and neutral lipids) were calculated. For microscopic analysis, MDA-MB468 cells were cultivated on two-well chamber slides, treated with test compound for 24 h, fixed with 1.5 vol % glutaraldehyde/PBS and finally treated with staining solution. After washing with PBS, cells were analysed by fluorescence microscopy.
# The percentage of differentiated cells with neutral and phospholipids as well as undifferentiated cells with phospholipids only are summarized in the table 5.
# [4] = tested on: broad selection of non-malignant cell lines and fully transformed malignant cancer cell lines; test: Anti-proliferative activity across cell line panel (Alamar Blue); assay type: cell-based; conditions: mean over non-malignant and malignant cell lines
# Description: as §1
# [5] = arrested RKO cells, p21waf1 expressed, read-out: RKO arrested (p21^waf1 expressed) IC50
# [6] = proliferating RKO cells, read-out: RKO proliferating IC50
melting point [°C],Structure (SMILES),IC50 [1] [µM],other results
,"O=C(/C=C/c1ccn(S(=O)(=O)c2ccc(-c3ccccc3)cc2)c1)NO [Compound 3, (E)-3-[1-(Biphenyl-4-sulfonyl)-1H-pyrrol-3-yl]-N-hydroxy-acrylamide]",0.8 to 21.6,"Effect of combination with Trail (A549 cell line): synergism is highly likely; IC50 [2, 5]: 0.45 to 15 µM; IC50 [2, 6]: 0.15 to 5.1 µM; Neutral & phospholipids (%) ([3]; 0.6 μM): 34.6%; Phospholipids (%) ([3]; 0.6 μM): 62.6%; Neutral & phospholipids (%) ([3]; 1.2 μM): 51.2%; Phospholipids (%) ([3]; 1.2 μM): 45.7%; IC50 [4]: 0.85 µM"
,"CN(CCc1cc2ccccc2[nH]1)Cc1ccc(S(=O)(=O)n2ccc(/C=C/C(=O)NO)c2)cc1 [Compound 9, (E)-N-Hydroxy-3-(1-[4-(([2-(1H-indol-2-yl)-ethyl]-methyl-amino)-methyl)-benzenesulfonyl]-1H-pyrrol-3-yl)-acrylamide]",0.07 to 5,"Effect of combination with Trail (A549 cell line): synergism is highly likely; IC50 [2, 5]: 0.45 to 15 µM; IC50 [2, 6]: 0.15 to 5.1 µM; Neutral & phospholipids (%) ([3]; 3 μM): 71.2%; Phospholipids (%) ([3]; 3 μM): 25.3%; Neutral & phospholipids (%) ([3]; 6 μM): 64.6%; Phospholipids (%) ([3]; 6 μM): 27.9%; IC50 [4]: 3.7 µM"
,"O=C(/C=C/c1ccn(S(=O)(=O)c2ccc(CNCc3ccncc3)cc2)c1)NO [Compound 16, (E)-N-Hydroxy-3-[1-(4-{[(pyridin-4-ylmethyl)-amino]-methyl}-benzenesulfonyl)-1H-pyrrol-3-yl]-acrylamide]",0.07 to 5,
227 to 228.6,"NCc1ccc(S(=O)(=O)n2ccc(/C=C/C(=O)NO)c2)cc1 [Compound 17, (E)-3-[1-(4-Aminomethyl-benzenesulfonyl)-1H-pyrrol-3-yl]-N-hydroxy-acrylamide]",0.07 to 5,
,"O=C(/C=C/c1ccn(S(=O)(=O)c2ccc(-c3cn[nH]c3)cc2)c1)NO [Compound 19, (E)-N-Hydroxy-3-[1-[4-(1H-pyrazol-4-yl)-benzenesulfonyl]-1H-pyrrol-3-yl]acrylamide]",0.07 to 5,
,"O=C(/C=C/c1ccn(S(=O)(=O)c2ccc(CNCc3c[nH]c4ccccc34)cc2)c1)NO [Compound 12, (E)-N-Hydroxy-3-[1-(4-{[(1H-indol-3-ylmethyl)-amino]-methyl}-benzenesulfonyl)-1H-pyrrol-3-yl]-acrylamide]",0.07 to 5,
,"O=C(/C=C/c1ccn(S(=O)(=O)c2ccc(CNCc3cccnc3)cc2)c1)NO [Compound 11, (E)-N-Hydroxy-3-[1-(4-{[(pyridin-3-ylmethyl)-amino]-methyl}-benzenesulfonyl)-1H-pyrrol-3-yl]-acrylamide]",0.07 to 5,
,"CC(C)CNCc1ccc(S(=O)(=O)n2ccc(/C=C/C(=O)NO)c2)cc1 [Compound 14, (E)-N-Hydroxy-3-{1-[4-(isobutylamino-methyl)-benzenesulfonyl]-1H-pyrrol-3-yl}-acrylamide]",0.07 to 5,
199.7 to 202.3,"Nc1ccccc1NC(=O)/C=C/c1ccn(S(=O)(=O)c2ccc(-c3cccnc3)cc2)c1 [Compound 21, (E)-N-(2-Amino-phenyl)-3-[1-(4-pyridin-3-yl-benzenesulfonyl)-1H-pyrrol-3-yl]-acrylamide]",0.07 to 5,
,"O=C(/C=C/c1ccn(S(=O)(=O)c2ccc(CNCc3ccccc3)cc2)c1)NO [Compound 13, (E)-3-{1-[4-(Benzylamino-methyl)-benzenesulfonyl]-1H-pyrrol-3-yl}-N-hydroxy-acrylamide]",0.07 to 5,
232.3 to 240.9,"Nc1ccccc1NC(=O)/C=C/c1ccn(S(=O)(=O)c2ccc(-c3cn[nH]c3)cc2)c1 [Compound 22, (E)-N-(2-Amino-phenyl)-3-{1-[4-(1H-pyrazol-4-yl)-benzenesulfonyl]-1H-pyrrol-3-yl}-acrylamide]",0.07 to 5,
244.2 to 246.5,"Nc1ccccc1NC(=O)/C=C/c1ccn(S(=O)(=O)c2ccc(-c3ccncc3)cc2)c1 [Compound 20, (E)-N-(2-Amino-phenyl)-3-[1-(4-pyridin-4-yl-benzenesulfonyl)-1H-pyrrol-3-yl]-acrylamide]",0.07 to 5,
,"O=C(/C=C/c1ccn(S(=O)(=O)c2ccc(CN(CCO)CCc3cc4ccccc4[nH]3)cc2)c1)NO [Compound 28, (E)-N-Hydroxy-3-{1-[4-({(2-hydroxy-ethyl)-[2-(1H-indol-2-yl)-ethyl]-amino}-methyl)-benzenesulfonyl]-1H-pyrrol-3-yl}-acrylamide]",0.07 to 5,
,"O=C(/C=C/c1ccn(S(=O)(=O)c2ccc(CNCc3ccc4[nH]ccc4c3)cc2)c1)NO [Compound 15, (E)-N-Hydroxy-3-[1-(4-{[(1H-indol-5-ylmethyl)-amino]-methyl}-benzenesulfonyl)-1H-pyrrol-3-yl]-acrylamide]",0.07 to 5,
114 to 159.4,"O=C(/C=C/c1ccn(S(=O)(=O)c2cccc(-c3ccccc3)c2)c1)NO [Compound 23, (E)-3-[1-(Biphenyl-3-sulfonyl)-1H-pyrrol-3-yl]-N-hydroxy-acrylamide]",0.07 to 5,
171.3 to 174.7,"Nc1ccccc1NC(=O)/C=C/c1ccn(S(=O)(=O)c2ccc(-c3ccccn3)s2)c1 [Compound 26, (E)-N-(2-Amino-phenyl)-3-[1-(5-pyridin-2-yl-thiophene-2-sulfonyl)-1H-pyrrol-3-yl]-acrylamide]",0.07 to 5,
,"CN(C)c1ccc(S(=O)(=O)n2ccc(/C=C/C(=O)Nc3ccccc3N)c2)cc1 [Compound 8, (E)-N-(2-Amino-phenyl)-3-[1-(4-dimethylamino-benzenesulfonyl)-1H-pyrrol-3-yl]-acrylamide]",0.8 to 21.6,
168 to 170,"O=C(/C=C/c1ccn(S(=O)(=O)c2ccc(CN3CCOCC3)cc2)c1)NO [Compound 27, (E)-N-Hydroxy-3-[1-(4-morpholin-4-ylmethyl-benzenesulfonyl)-1H-pyrrol-3-yl]-acrylamide]",0.07 to 5,
160.7 to 166.6,"O=C(/C=C/c1ccn(S(=O)(=O)c2ccc(-n3cccn3)cc2)c1)NO [Compound 25, (E)-N-Hydroxy-3-[1-(4-pyrazol-1-yl-benzenesulfonyl)-1H-pyrrol-3-yl]-acrylamide]",0.07 to 5,
219.3 to 221.4,"O=C(/C=C/c1ccn(S(=O)(=O)c2ccc(-c3ccncc3)cc2)c1)NO [Compound 18, (E)-N-Hydroxy-3-[1-(4-pyridin-4-yl-benzenesulfonyl)-1H-pyrrol-3-yl]-acrylamide]",0.07 to 5,

# — patent publication US8188138B2, “Sulphonylpyrrole hydrochloride salts as histone deacetylases inhibitors” (4SC AG, priority 2005, dated 2012)
